# Experiments:
# Assay in all cases: radiometric filter-binding kinase assay
# WNK1 (human) = WNK1 (human) (UniProt Q9H4A3)
# NUAK1 (human) = NUAK1 (human) (UniProt O60285)
# MAP4K5 (human) = MAP4K5 (human) (UniProt Q9Y4K4)
# TTBK1 (human) = TTBK1 (human) (UniProt Q5TCY1)
# DDR2 (human) = DDR2 (human) (UniProt Q16832)
# STK16 (human) = STK16 (human) (UniProt O75716)
# [1] = system: TGFBR1 (human), P36897 [T204D]
# [2] = target: PRKAA1 PRKAB2 PRKAG1 (human) (UniProt O43741+Q13131+P54619)
# CSNK1G2 (human) = CSNK1G2 (human) (UniProt P78368)
# ABL1 (human) = ABL1 (human) (UniProt P00519)
# ULK1 (human) = ULK1 (human) (UniProt O75385)
# STK33 (human) = STK33 (human) (UniProt Q9BYT3)
# MAPK7 (human) = MAPK7 (human) (UniProt Q13164)
# PDGFRA (human) = PDGFRA (human) (UniProt P16234)
# TSSK1B (human) = TSSK1B (human) (UniProt Q9BXA7)
# EIF2AK3 (human) = EIF2AK3 (human) (UniProt Q9NZJ5)
# TESK1 (human) = TESK1 (human) (UniProt Q15569)
# MAP4K3 (human) = MAP4K3 (human) (UniProt Q8IVH8)
# SIK2 (human) = SIK2 (human) (UniProt Q9H0K1)
# TEK (human) = TEK (human) (UniProt Q02763)
# TTBK2 (human) = TTBK2 (human) (UniProt Q6IQ55)
# TLK1 (human) = TLK1 (human) (UniProt Q9UKI8)
# CDK9 CCNT1 (human) = CDK9 CCNT1 (human) (UniProt P50750+O60563)
# ZAP70 (human) = ZAP70 (human) (UniProt P43403)
# MAP2K6 (human) = MAP2K6 (human) (UniProt P52564)
# ULK2 (human) = ULK2 (human) (UniProt Q8IYT8)
# PTK6 (human) = PTK6 (human) (UniProt Q13882)
# IRAK1 (human) = IRAK1 (human) (UniProt P51617)
# [3] = system: OXSR1 (human), O95747 [T185E]
# PRKCG (human) = PRKCG (human) (UniProt P05129)
# STK24 (human) = STK24 (human) (UniProt Q9Y6E0)
# SIK3 (human) = SIK3 (human) (UniProt Q9Y2K2)
# Sequence of NUAK1 (human) (O60285 whole entry, looked up): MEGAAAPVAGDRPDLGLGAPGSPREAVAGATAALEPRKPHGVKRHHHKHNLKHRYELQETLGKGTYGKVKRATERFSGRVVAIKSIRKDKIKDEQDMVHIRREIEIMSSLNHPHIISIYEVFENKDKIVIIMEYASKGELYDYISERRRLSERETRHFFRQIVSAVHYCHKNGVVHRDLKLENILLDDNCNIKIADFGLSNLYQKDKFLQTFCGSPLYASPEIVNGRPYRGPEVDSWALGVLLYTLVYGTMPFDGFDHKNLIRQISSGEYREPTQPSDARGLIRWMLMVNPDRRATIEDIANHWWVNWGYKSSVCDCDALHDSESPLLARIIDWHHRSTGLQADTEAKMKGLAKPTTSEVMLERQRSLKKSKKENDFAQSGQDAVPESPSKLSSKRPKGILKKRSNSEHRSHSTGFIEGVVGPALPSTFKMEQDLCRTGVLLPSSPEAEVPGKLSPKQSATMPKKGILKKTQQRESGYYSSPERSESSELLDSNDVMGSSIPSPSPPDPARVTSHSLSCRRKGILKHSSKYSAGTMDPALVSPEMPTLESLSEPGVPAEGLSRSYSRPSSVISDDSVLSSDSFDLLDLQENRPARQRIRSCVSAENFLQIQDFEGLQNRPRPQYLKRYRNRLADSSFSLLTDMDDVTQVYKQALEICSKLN
# Sequence of TEK (human) (Q02763 whole entry, looked up): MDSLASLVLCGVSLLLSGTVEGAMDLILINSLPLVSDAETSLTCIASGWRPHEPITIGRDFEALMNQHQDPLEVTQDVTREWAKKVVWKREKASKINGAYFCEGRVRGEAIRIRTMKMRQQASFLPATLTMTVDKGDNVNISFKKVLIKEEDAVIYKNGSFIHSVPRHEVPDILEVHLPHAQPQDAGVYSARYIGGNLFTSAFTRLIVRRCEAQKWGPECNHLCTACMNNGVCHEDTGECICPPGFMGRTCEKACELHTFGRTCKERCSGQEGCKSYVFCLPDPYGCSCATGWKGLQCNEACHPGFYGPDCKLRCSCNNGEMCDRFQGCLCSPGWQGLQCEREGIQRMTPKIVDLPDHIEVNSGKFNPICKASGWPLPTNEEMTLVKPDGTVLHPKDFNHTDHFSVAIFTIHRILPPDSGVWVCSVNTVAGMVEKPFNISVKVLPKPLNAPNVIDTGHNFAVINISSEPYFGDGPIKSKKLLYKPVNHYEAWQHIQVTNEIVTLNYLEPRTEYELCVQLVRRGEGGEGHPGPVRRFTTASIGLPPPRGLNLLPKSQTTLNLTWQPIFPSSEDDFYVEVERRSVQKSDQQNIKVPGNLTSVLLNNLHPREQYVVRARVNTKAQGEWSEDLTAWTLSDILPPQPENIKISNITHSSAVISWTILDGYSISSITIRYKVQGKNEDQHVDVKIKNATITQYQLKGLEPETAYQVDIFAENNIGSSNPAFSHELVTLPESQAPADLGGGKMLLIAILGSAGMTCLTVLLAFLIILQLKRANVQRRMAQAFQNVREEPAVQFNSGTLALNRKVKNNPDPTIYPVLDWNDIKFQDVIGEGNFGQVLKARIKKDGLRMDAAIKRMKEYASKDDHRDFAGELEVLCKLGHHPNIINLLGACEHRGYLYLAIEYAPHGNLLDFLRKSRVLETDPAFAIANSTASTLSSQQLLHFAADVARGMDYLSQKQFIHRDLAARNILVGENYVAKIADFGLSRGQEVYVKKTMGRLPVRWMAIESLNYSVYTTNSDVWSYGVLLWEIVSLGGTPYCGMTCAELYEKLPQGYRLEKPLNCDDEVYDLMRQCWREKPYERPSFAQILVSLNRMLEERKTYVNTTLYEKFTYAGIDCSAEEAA
# Sequence of TTBK2 (human) (Q6IQ55 whole entry, looked up): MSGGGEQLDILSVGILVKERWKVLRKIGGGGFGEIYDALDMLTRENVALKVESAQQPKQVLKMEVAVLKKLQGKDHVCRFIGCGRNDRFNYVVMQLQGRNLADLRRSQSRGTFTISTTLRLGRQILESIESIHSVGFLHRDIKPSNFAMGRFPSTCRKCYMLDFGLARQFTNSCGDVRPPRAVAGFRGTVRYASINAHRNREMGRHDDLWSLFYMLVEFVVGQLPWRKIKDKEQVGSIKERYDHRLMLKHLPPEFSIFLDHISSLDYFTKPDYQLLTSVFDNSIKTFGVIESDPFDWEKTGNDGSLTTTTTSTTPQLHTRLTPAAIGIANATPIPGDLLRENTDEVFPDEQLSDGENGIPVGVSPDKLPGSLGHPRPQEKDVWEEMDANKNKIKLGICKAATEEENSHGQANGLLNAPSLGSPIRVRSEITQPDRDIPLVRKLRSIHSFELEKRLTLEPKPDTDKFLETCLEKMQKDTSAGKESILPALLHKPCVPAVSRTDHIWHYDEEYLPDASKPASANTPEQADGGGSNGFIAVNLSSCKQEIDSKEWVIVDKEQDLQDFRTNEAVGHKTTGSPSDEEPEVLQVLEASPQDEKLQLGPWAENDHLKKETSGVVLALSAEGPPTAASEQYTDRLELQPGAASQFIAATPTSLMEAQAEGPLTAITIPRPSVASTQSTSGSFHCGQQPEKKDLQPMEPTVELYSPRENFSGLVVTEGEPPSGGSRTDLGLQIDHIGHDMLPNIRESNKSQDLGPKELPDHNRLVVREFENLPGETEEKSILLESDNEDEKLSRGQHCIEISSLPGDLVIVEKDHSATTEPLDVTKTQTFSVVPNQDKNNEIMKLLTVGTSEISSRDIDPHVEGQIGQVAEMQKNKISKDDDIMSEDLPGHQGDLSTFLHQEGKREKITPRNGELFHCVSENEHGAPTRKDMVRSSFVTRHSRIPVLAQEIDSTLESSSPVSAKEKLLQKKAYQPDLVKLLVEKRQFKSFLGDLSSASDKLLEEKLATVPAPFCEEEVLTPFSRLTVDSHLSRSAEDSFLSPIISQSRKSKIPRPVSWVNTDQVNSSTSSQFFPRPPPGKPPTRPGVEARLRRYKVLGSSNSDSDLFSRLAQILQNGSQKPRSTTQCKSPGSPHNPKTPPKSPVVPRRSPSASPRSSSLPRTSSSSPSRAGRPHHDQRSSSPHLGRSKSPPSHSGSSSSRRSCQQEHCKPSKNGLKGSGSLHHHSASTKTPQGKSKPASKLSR
# Sequence of PTK6 (human) (Q13882 whole entry, looked up): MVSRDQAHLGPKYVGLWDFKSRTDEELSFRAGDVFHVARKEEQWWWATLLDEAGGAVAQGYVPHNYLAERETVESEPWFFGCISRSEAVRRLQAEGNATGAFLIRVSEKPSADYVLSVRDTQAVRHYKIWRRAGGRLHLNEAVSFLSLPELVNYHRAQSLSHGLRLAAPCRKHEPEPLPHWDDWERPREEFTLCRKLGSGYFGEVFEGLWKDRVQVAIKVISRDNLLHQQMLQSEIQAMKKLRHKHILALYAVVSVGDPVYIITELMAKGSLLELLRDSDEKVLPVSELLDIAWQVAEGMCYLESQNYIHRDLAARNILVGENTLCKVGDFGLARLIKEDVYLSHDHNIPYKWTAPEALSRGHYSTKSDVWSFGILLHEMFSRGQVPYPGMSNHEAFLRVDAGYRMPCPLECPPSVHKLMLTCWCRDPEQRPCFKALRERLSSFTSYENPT
# Sequence of PDGFRA (human) (P16234 whole entry, looked up): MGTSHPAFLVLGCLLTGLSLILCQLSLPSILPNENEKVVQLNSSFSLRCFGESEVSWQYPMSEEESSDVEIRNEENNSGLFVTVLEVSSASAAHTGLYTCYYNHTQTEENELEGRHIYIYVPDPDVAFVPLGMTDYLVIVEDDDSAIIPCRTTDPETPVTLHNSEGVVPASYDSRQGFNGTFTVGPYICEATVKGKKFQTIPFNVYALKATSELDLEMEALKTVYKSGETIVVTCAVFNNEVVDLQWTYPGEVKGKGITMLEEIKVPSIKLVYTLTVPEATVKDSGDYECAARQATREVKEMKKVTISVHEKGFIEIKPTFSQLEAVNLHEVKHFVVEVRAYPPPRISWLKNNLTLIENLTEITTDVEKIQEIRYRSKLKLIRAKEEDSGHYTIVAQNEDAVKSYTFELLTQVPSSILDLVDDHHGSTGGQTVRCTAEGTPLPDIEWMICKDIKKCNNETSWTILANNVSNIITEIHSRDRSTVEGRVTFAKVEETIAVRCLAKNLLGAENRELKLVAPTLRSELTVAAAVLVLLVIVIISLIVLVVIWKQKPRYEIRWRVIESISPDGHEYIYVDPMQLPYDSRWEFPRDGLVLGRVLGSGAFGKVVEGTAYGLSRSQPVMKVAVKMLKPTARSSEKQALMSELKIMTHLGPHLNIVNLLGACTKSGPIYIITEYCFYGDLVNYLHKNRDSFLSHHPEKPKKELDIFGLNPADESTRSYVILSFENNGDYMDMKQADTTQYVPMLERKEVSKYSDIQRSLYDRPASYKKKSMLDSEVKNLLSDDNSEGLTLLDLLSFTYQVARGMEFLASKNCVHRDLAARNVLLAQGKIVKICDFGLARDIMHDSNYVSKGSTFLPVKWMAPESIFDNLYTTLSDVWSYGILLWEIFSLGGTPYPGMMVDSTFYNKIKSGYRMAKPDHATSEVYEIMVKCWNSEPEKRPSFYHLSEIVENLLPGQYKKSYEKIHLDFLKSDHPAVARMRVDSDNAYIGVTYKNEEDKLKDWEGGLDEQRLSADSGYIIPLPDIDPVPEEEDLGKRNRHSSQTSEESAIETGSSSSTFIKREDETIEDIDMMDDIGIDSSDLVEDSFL
# Sequence of TSSK1B (human) (Q9BXA7 whole entry, looked up): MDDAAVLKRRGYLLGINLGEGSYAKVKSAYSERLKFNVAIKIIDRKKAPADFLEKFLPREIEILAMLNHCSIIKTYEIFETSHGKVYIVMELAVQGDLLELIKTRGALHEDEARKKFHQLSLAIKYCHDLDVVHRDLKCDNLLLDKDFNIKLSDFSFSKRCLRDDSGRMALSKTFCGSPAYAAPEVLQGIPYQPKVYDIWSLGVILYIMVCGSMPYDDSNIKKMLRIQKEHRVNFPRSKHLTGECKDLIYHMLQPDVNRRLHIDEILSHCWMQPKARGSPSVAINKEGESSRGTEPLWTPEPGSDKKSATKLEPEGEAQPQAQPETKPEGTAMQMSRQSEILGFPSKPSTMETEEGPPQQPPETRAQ
structure (smiles),measurement,setting,value
CNC(=O)C1[C@H]2O[C@@](C)([C@@H]1N)n1c3ccccc3c3c4c(c5c6ccccc6n2c5c31)C(=O)NC4 (some centres undefined),residual activity,WNK1 (human); compound 0.1 µM,91%
same,residual activity,WNK1 (human); compound 1.0 µM,86%
same,residual activity,NUAK1 (human); compound 0.01 µM,2%
same,residual activity,NUAK1 (human); compound 0.1 µM,2%
same,residual activity,NUAK1 (human); compound 1.0 µM,1%
same,residual activity,MAP4K5 (human); compound 0.01 µM,10%
same,residual activity,MAP4K5 (human); compound 0.1 µM,7%
same,residual activity,MAP4K5 (human); compound 1.0 µM,4%
same,residual activity,TTBK1 (human); compound 0.01 µM,101%
same,residual activity,TTBK1 (human); compound 0.1 µM,108%
same,residual activity,TTBK1 (human); compound 1.0 µM,99%
same,residual activity,DDR2 (human); compound 0.1 µM,8%
same,residual activity,DDR2 (human); compound 1.0 µM,3%
same,residual activity,STK16 (human); compound 0.01 µM,102%
same,residual activity,STK16 (human); compound 0.1 µM,85%
same,residual activity,STK16 (human); compound 1.0 µM,69%
same,residual activity,[1]; compound 0.01 µM,96%
same,residual activity,[1]; compound 0.1 µM,74%
same,residual activity,[1]; compound 1.0 µM,17%
same,residual activity,[2]; compound 0.01 µM,4%
same,residual activity,[2]; compound 0.1 µM,3%
same,residual activity,[2]; compound 1.0 µM,1%
same,residual activity,CSNK1G2 (human); compound 0.01 µM,106%
same,residual activity,CSNK1G2 (human); compound 0.1 µM,97%
same,residual activity,CSNK1G2 (human); compound 1.0 µM,86%
same,residual activity,ABL1 (human); compound 0.01 µM,98%
same,residual activity,ABL1 (human); compound 0.1 µM,82%
same,residual activity,ABL1 (human); compound 1.0 µM,37%
same,residual activity,ULK1 (human); compound 0.01 µM,102%
same,residual activity,ULK1 (human); compound 0.1 µM,43%
same,residual activity,ULK1 (human); compound 1.0 µM,11%
same,residual activity,STK33 (human); compound 0.01 µM,44%
same,residual activity,STK33 (human); compound 0.1 µM,27%
same,residual activity,STK33 (human); compound 1.0 µM,23%
same,residual activity,MAPK7 (human); compound 0.01 µM,66%
same,residual activity,MAPK7 (human); compound 0.1 µM,24%
same,residual activity,MAPK7 (human); compound 1.0 µM,12%
same,residual activity,PDGFRA (human); compound 0.01 µM,54%
same,residual activity,PDGFRA (human); compound 0.1 µM,8%
same,residual activity,PDGFRA (human); compound 1.0 µM,2%
same,residual activity,TSSK1B (human); compound 0.01 µM,13%
same,residual activity,TSSK1B (human); compound 0.1 µM,5%
same,residual activity,TSSK1B (human); compound 1.0 µM,4%
same,residual activity,EIF2AK3 (human); compound 0.01 µM,62%
same,residual activity,EIF2AK3 (human); compound 0.1 µM,59%
same,residual activity,EIF2AK3 (human); compound 1.0 µM,36%
same,residual activity,TESK1 (human); compound 0.01 µM,76%
same,residual activity,TESK1 (human); compound 0.1 µM,19%
same,residual activity,TESK1 (human); compound 1.0 µM,2%
same,residual activity,MAP4K3 (human); compound 0.01 µM,3%
same,residual activity,MAP4K3 (human); compound 0.1 µM,2%
same,residual activity,MAP4K3 (human); compound 1.0 µM,1%
same,residual activity,SIK2 (human); compound 0.01 µM,4%
same,residual activity,SIK2 (human); compound 0.1 µM,0%
same,residual activity,SIK2 (human); compound 1.0 µM,1%
same,residual activity,TEK (human); compound 0.01 µM,59%
same,residual activity,TEK (human); compound 0.1 µM,41%
same,residual activity,TEK (human); compound 1.0 µM,20%
same,residual activity,TTBK2 (human); compound 0.01 µM,107%
same,residual activity,TTBK2 (human); compound 0.1 µM,102%
same,residual activity,TTBK2 (human); compound 1.0 µM,90%
same,residual activity,TLK1 (human); compound 0.01 µM,93%
same,residual activity,TLK1 (human); compound 0.1 µM,39%
same,residual activity,TLK1 (human); compound 1.0 µM,6%
same,residual activity,CDK9 CCNT1 (human); compound 0.01 µM,61%
same,residual activity,CDK9 CCNT1 (human); compound 0.1 µM,17%
same,residual activity,CDK9 CCNT1 (human); compound 1.0 µM,15%
same,residual activity,ZAP70 (human); compound 0.01 µM,83%
same,residual activity,ZAP70 (human); compound 0.1 µM,16%
same,residual activity,ZAP70 (human); compound 1.0 µM,2%
same,residual activity,MAP2K6 (human); compound 0.01 µM,10%
same,residual activity,MAP2K6 (human); compound 0.1 µM,13%
same,residual activity,MAP2K6 (human); compound 1.0 µM,5%
same,residual activity,ULK2 (human); compound 0.01 µM,30%
same,residual activity,ULK2 (human); compound 0.1 µM,5%
same,residual activity,ULK2 (human); compound 1.0 µM,1%
same,residual activity,PTK6 (human); compound 0.01 µM,28%
same,residual activity,PTK6 (human); compound 0.1 µM,16%
same,residual activity,PTK6 (human); compound 1.0 µM,4%
same,residual activity,IRAK1 (human); compound 0.01 µM,15%
same,residual activity,IRAK1 (human); compound 0.1 µM,2%
same,residual activity,IRAK1 (human); compound 1.0 µM,3%
same,residual activity,[3]; compound 0.01 µM,75%
same,residual activity,[3]; compound 0.1 µM,23%
same,residual activity,[3]; compound 1.0 µM,7%
same,residual activity,PRKCG (human); compound 0.01 µM,95%
same,residual activity,PRKCG (human); compound 0.1 µM,51%
same,residual activity,PRKCG (human); compound 1.0 µM,13%
same,residual activity,STK24 (human); compound 0.01 µM,97%
same,residual activity,STK24 (human); compound 0.1 µM,50%
same,residual activity,STK24 (human); compound 1.0 µM,6%
same,residual activity,SIK3 (human); compound 0.01 µM,31%
same,residual activity,SIK3 (human); compound 0.1 µM,7%
same,residual activity,SIK3 (human); compound 1.0 µM,2%

# — the kinase profiling compilation of Christmann-Franck et al. (2016)
